The subject of series [1] is S. cerevisiae. Kind of series: Growth of yeast cultures in varying TMR concentrations. The note with it: 10 μM TMR.
For series [2], the system named is yeast. Particulars: cited from earlier work.
For series [3], the target named is TMR-binding aptamer. Particulars: cited from earlier work.
In series [4] the test system is S. cerevisiae cell wall. Particulars: cited from earlier work.
For series [5], the system named is HIS3 gene. Kind of series: Survival on media lacking histidine in strain L40-ura3, which lacks the LexA-MS2 fusion protein. In kind it is cell-based, S. cerevisiae. The text has this:
To test whether the evolved RNAs require the MS2 protein-mediated localization to the LexA promoter, we introduced the plasmids expressing two representative active clones (m26-11 and m26-15) into the yeast strain L40-ura3 which lacks the LexA-MS2 fusion protein but is otherwise identical to YBZ-1 (Bernstein, D. S., Buter, N., Stumpf, C., and Wickens, M. (2002). Analyzing mRNA-protein complexes using a yeast three-hybrid system. Methods 26, 123-141).
Media consisted of yeast nitrogen base (Sigma), 4% dextrose, and synthetic drop out supplements lacking histidine or histidine and uracil (Clontech). Yeast were cultured either in liquid medium or on agar plates at 30° C. S. cerevisiae strains YBZ-1 (MATa, ura3-52, leu2-3, 112, his3-200, trp1-1, ade2, LYS2::(LexA op)-HIS3, ura3::(LexA op)-LacZ, LexA-MS2-MS2 coat (N55K)) and L40-ura3 (MATa, ura3-52, leu2-3112, his3Δ200, trp1Δ1, ade2, LYS2::(LexA op)-HIS3, ura3::(LexA op)-LacZ) were a gift from Professor Marvin Wickens (Bernstein, D. S., Buter, N., Stumpf, C., and Wickens, M. (2002). Analyzing mRNA-protein complexes using a yeast three-hybrid system. Methods 26, 123-141).

For series [6] the following is noted: Gal4-VP16 fusions versus intact Gal4; cited from earlier work.

The term Kd denotes the equilibrium constant for the complex coming apart. Regarding `CN(C)c1ccc2c(-c3ccc(CCl)cc3)c3ccc(=[N+](C)C)cc-3oc2c1` [TMR, tetramethylrosamine], the “growth inhibition of yeast” value in series [1] is reported as “Slight growth inhibition”. Moreover, in series [2], the “concentration non-toxic to yeast” value is “up to 1 μM”. The Kd in series [3] is 40 nM. Besides, the “crossing of the S. cerevisiae cell wall” value in series [4] is “cross the S. cerevisiae cell wall”.

On to “m26-15: evolved N40-26 variant SEQ ID NO: 28 CGCGGACCAAUGGU-CCCCCAAGUGGAUGCCUAAGCCUCUU (DNA CGCGGACCAAUGGUCCCCCAAGUGGAUGCCUAAGCCUCUU; listed as RNA, chemistry not given here)”, for which, in series [5], the “survival on media lacking histidine without LexA-MS2 fusion protein” value is reported as “unable to survive”.

Turning to VP16, in series [6], the “transcriptional activation, fold more potent than Gal4” value is 100 fold.

These data come from patent publication US8017755B2, “RNA-based transcriptional regulators” (President and Fellows of Harvard College, priority 2003, dated 2011).
